# Assays:
# [1] = system: L-carnitine dehydrogenase; assay: Substrate specificity of L-carnitine dehydrogenase; assay type: biochemical; conditions: L-carnitine dehydrogenase from Alcaligenes sp. No. 981
# Experimental: 1 ml of the reaction solution was placed in a small test tube and incubated at 37° C. for 5 mins. and thereto was added 0.02 ml of the […] solution to be examined, to cause the reaction, with agitation. After 10 mins. 2 ml of 0.1N aq. HCl were added thereto to terminate the reaction and the A550 nm of the solution was measured to obtained the absorbance A1.
# On the other hand, the same procedures were repeated for a reaction solution in which the L-carnitine was omitted, to obtain the absorbance A0.
# [2] = system: L-carnitine dehydrogenase; assay: Km values and coenzyme reactivity of L-carnitine dehydrogenase; assay type: biochemical, Alcaligenes sp. No. 981; conditions: for Km: L-carnitine dehydrogenase, 100 mM tris-HCl buffer pH 9.0
# Experimental: The L-carnitine dehydrogenase used in preparing the analysis reagent for determining the amount of L-carnitine, should have reactivity to the substrate, namely, L-carnitine, and may be employed in combination with a coenzyme such as an NAD (preferably NAD or thio-NAD). Such reactivity can be confirmed using the combination of such coenzyme with the substrate. For example, it has been confirmed that, when using L-carnitine as the substrate and thio-NAD as the coenzyme in 100 mM tris-HCl buffer solution (pH 9.0), the L-carnitine dehydrogenase produced from Alcaligenes sp.
# Km value for NAD^+ was determined by varying the concentration of the NAD^+ in a reaction solution containing 100 mM tris-HCl buffer solution (pH 9.0). 5 units of diaphorase (a product of Toyo Jozo), 0.025% of NBT (a product of Wako Pure Chemical Ind.), 1% of Tween 80 (a product of Wako Pure Chemical Ind.) and 50 mM L-carnitine, whereby a value of 0.141 mM was obtained.
Compound,Km [2] [µM],"enzymatic activity relative to the activity when using NAD as the coenzyme ([2]; L-carnitine as substrate, 100 mM tris-HCl pH 9.0)",Relative Specificity % [1] [%],Km ([2]; listed as NAD^+) [µM]
C[N+](C)(C)CC(=O)[O-] [Glycinebetaine],,,0,
NCCCC[C@H](N)C(=O)O [Lysine],,,0,
"NC(=O)c1ccc[n+]([C@@H]2O[C@H](COP(=O)([O-])OP(=O)(O)OC[C@H]3O[C@@H](n4cnc5c(N)ncnc54)[C@H](O)[C@@H]3O)[C@@H](O)[C@H]2O)c1 [NAD, nicotinamide adenine dinucleotide]",140,,,141
Glucose,,,0,

# Further lines, with some results ahead:
Km [2] [µM],"enzymatic activity relative to the activity when using NAD as the coenzyme ([2]; L-carnitine as substrate, 100 mM tris-HCl pH 9.0)",Compound,Relative Specificity % [1] [%],Km ([2]; listed as NAD^+) [µM]
9300,,C[N+](C)(C)C[C@H](O)CC(=O)[O-] [L-carnitine],100,
490,about 15%,"NC(=S)c1ccc[n+]([C@@H]2O[C@H](COP(=O)([O-])OP(=O)(O)OC[C@H]3O[C@@H](n4cnc5c(N)ncnc54)[C@H](O)[C@@H]3O)[C@@H](O)[C@H]2O)c1 [thio-NAD, thionicotinamide adenine dinucleotide]",,

# From patent US5385829A, “Method of assaying for acyl-L-carnitines and short-chain acyl-carnitines” (priority 1990, dated 1995)
